Test results as given in paper PMC7703437, “In Vitro Hepatic Metabolism of Curcumin Diethyl Disuccinate by Liver S9 from Different Animal Species” (Frontiers in Pharmacology, 2020).
Several values for one entry are separate records, joined by “and”; a condition that tells them apart may be missing. Identical values can stand only once.

What was measured:
[1] = set-up: method as in Muangnoi et al., 2019b; conditions: ref Muangnoi et al., 2019b; cited from earlier work
[2] = In vitro metabolism profiling of CDD in dog liver S9 (1 mg/ml); type: in vitro ADME, dog (beagle); conditions: beagle, liver S9; dog LS9 1 mg/ml; read-out: t 1/2 (CDD)
Method: (§1) The metabolism profiles of CDD were investigated against HLS9, MLS9, DLS9, and RLS9. A stock solution of CDD was prepared at 150 µM in 50% acetonitrile in water before use. The metabolism study was initiated by spiking 735 µl of preincubated LS9 with 15 µl of CDD stock solution, and the mixture was subsequently incubated at 37°C. The final concentrations of CDD and LS9 were 3 μM and 1 mg/ml, respectively. A 50-µl aliquot from the mixture was collected at 0.5, 1, 2, 3, 4, 5, 10, 15, 30, 45, 60, 90, and 120 min and immediately mixed with 100 µl of ice-cold acetonitrile containing 0.45 µM of internal standard DMC to terminate the metabolic reaction. […] The sample at the initial time point (0 min) was prepared as the other samples, except that heat-inactivated HLS9, MLS9, DLS9, and RLS9 (80°C for 20 min; 1 mg/ml protein) were used.
(§2) The UHPLC system consisted of an Agilent series 1290 quaternary pump with an online degasser, autosampler, column oven, and diode array detector. The mobile phase was composed of (A) 0.1% (v/v) formic acid in acetonitrile and (B) 0.1% (v/v) formic acid in water. Each solution was filtered through a nylon filter (pore size, 0.22 µm; MS® Membrane Filters; Membrane Solutions, United States) before use. The mobile phase flow rate was kept at 1.2 ml/min in a gradient mode using the following elution program: 0–3.0 min, initial A-B (40:60, v/v); 4.5–7.0 min, isocratic elution A-B [50:50, (v/v); 8.5–11.0 min, isocratic elution A-B (60:40, v/v); and 12.0–17.0 min, isocratic elution A-B (40:60, v/v)]. CDD, curcumin, and MSCUR in the supernatant were partitioned using a C8 column (4.6 mm × 50 mm, 2.7 µm; HALO, Advanced Materials Technology, United States) with reference to DMC. The detection wavelength was set at 400 nm (λ max(CDD) = 400 nm, λ max(curcumin) = 427 nm, λ max(MSCUR) = 418 nm, and λ max(DMC) = 421 nm). The column was maintained at 35°C throughout the run, and the supernatant injection volume was set at 20 µl.
(§3) The concentrations of CDD, curcumin, and MSCUR in the supernatant were determined from the standard plots, which were prepared by spiking individual working solutions of the compounds to heat-inactivated HLS9, MLS9, DLS9, and RLS9 ([Alcorn et al., 2007]; [Montoro-Garcia et al., 2009]; [Singh et al., 2010]). These working standards were extracted with 100 µl of ice-cold acetonitrile containing 0.45 µM of DMC and then 120 μl of the supernatant was diluted with 40 μl of water prior to the UHPLC analysis. The peak area ratios of CDD, curcumin, and MSCUR to the internal standard were computed against linear concentration ranges of 0.025–4.5 µM CDD, 0.025–4.5 µM curcumin, and 0.0125–0.75 µM MSCUR, respectively, with the coefficient of determination (r^2) values greater than 0.99.
(§4) The percent content of CDD and the metabolites formed upon its incubation with LS9, namely, curcumin and MSCUR, was plotted against incubation time.
(§5) The following equations were adopted to describe the changes in CDD and MSCUR content over time (t): A = A0e^−k1t (2) B= k1A0/k2−k1(e^−k1t−e^−k2t), (3) where A0 is the CDD concentration at time 0, k 1 is the degradation rate constant of CDD, and k 2 is the degradation rate constant of MSCUR. k 1 and k 2 were determined by using Eqs. 2 and 3, respectively, with nonlinear regression analysis using the SOLVER function of Microsoft Excel for Office 365 MSO (16.0.12527.20986) ([Brown, 2001]). The half-life (t 1/2) was calculated using Eq. 4: t1/2=0.693/k (4)
(§6) The in vitro intrinsic clearance (CLint,in vitro) of CDD and MSCUR in LS9 was calculated using Eq. 5: CLint, in vitro= k × [V]incubation(ml)/[P]incubation(mg protein), (5) where [V]incubation is the incubation volume in ml, and [P]incubation is the amount of LS9. […]

dog LS9 (DLS9; beagle) = experiment: as above; type: in vitro ADME
Method: as §1, §2, §3, §4, §5, §6

HLS9 = experiment: CDD depletion in HLS9 0.02 mg/ml (optimisation of incubation condition); type: in vitro ADME, human; conditions: CDD 3 μM
Method: The metabolism profiles of CDD and curcumin formation profile were investigated against HLS9, MLS9, DLS9 and RLS9. A stock solution of CDD was prepared at 150 µM in 50% acetonitrile in water before use. The metabolism study was initiated by spiking a 588 µl pre-incubated LS9 with 12 µl CDD stock solution, and subsequently incubated at 37°C. The final concentrations of CDD and LS9 were 3 µM and 0.02 mg/ml, respectively. A 50 µl aliquot from the mixture was collected at 0.5, 1, 2, 3, 4, 5, 10, 15, 30, 45 and 60 min and was immediately mixed with 100 µl of ice-cold acetonitrile containing 0.45 µM of internal standard DMC to terminate the metabolic reaction. […] Samples of 120 µl of supernatant wee diluted with 40 µl of water prior to UHPLC analysis (Agilent series 1290, Agilent Technology, USA) by means of protocol outlined in Materials and Methods:“In vitro Metabolism Profiling of Curcumin Diethyl Disuccinate”. The sample at 0 min was prepared as other samples except that heat-inactivated HLS9, MLS9, DLS9 and RLS9 (80°C for 20 min; 1 mg/ml protein) were used. Duplicates were conducted for each experiment.
The peak area ratios of CDD and curcumin to internal standard in the supernatant were determined. The percent contents of CDD and curcumin were plotted against incubation time. The depletion of CDD was calculated with reference to the initial concentration. The saturated substrate was defined as % depletion less than 30.

[3] = system: LS9 from all tested species (HLS9, MLS9, DLS9, RLS9); experiment: In vitro metabolism profiling of CDD, statements for LS9 from all tested species; type: in vitro ADME, human, monkey, dog, rat; conditions: within the first 15 min of incubation, LS9 1 mg/ml from all tested species, CDD 3 µM
Method: as §1, §2
The concentrations of CDD, curcumin, and MSCUR in the supernatant were determined from the standard plots, which were prepared by spiking individual working solutions of the compounds to heat-inactivated HLS9, MLS9, DLS9, and RLS9 ([Alcorn et al., 2007]; [Montoro-Garcia et al., 2009]; [Singh et al., 2010]). […]
as §5, with “2 and 3, respectively, with nonlinear regression analysis using the SOLVER function of Microsoft Excel for Office 365 MSO (16.0.12527.20986) ([Brown, 2001]).” left out

- half-life at 3 µM [2]: 52.2 ± 15 s
- CLint, in vitro(CDD) (dog LS9 (DLS9; beagle); dog LS9): 0.85 ± 0.29 ml min^−1 mg protein^−1
- k 1 (CDD) (dog LS9 (DLS9; beagle); dog LS9 1 mg/ml, CDD 3 µM, 37°C): 0.85 ± 0.29 min⁻¹
- CLint, in vivo(CDD) (dog LS9 (DLS9; beagle); dog, scaled from CLint,in vitro with physiologically based scaling factors): 198.61 ± 66.73 L/h/kg
- CLint, in vivo total (dog LS9 (DLS9; beagle); dog, sum of CLint,in vivo(CDD) and CLint,in vivo(MSCUR)): 5,915.59 ± 535.14 L h^−1 kg^−1
- CLH (predicted hepatic clearance) (dog LS9 (DLS9; beagle); dog, well-stirred model, QH 40 ml min^−1 kg^−1, fup 0.0594): 2.38 ± 1.48 × 10^–3 L h^−1 kg^−1
- % CDD remaining (HLS9; 0.5 min): 82.88%
- %Depletion of CDD (HLS9; 0.5 min): 17.12%
- % CDD remaining (HLS9; 1 min): 80.95%
- %Depletion of CDD (HLS9; 1 min (selected incubation time)): 19% and 19.05%
- % CDD remaining (HLS9; 2 min): 68.18%
- %Depletion of CDD (HLS9; 2 min): 31.82%
- % CDD remaining (HLS9; 3 min): 57.46%
- %Depletion of CDD (HLS9; 3 min): 42.54%
- % CDD remaining (HLS9; 4 min): 43.15%
- %Depletion of CDD (HLS9; 4 min): 56.85%
- % CDD remaining (HLS9; 5 min): 36.37%
- %Depletion of CDD (HLS9; 5 min): 63.63%
- CDD hydrolyzed [3]: more than 95%
SMILES: CCOC(=O)CCC(=O)Oc1ccc(/C=C/C(=O)/C=C(O)/C=C/c2ccc(OC(=O)CCC(=O)OCC)c(OC)c2)cc1OC [CDD, curcumin diethyl disuccinate]
- log P [1]: 2.55
